Legend:
[1] = tested on: Puccinia recondita f. Sp. Tritici; experiment: Fungicidal activity against Puccinia recondita f. sp. tritici / wheat / leaf disc curative (brown rust); type: in vivo; details: foliar, 24 h, 200 ppm in the applied formulation, wheat leaf segments, curative (applied 1 day after inoculation), compared to untreated control leaf disks, read-out: disease control
Procedure, shortened: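 Curative test on wheat leaf segments (cv. Kanzler) on agar, inoculated with spore suspension and held dark at 19° C, 75% RH; formulated compound in water applied 1 day after inoculation. Incubated at 19° C, 75% RH, 12 h light/12 h dark; percent disease control versus untreated scored 6 to 8 days after application.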

[2] = tested on: Glomerella lagenarium (Colletotrichum lagenarium); experiment: Fungicidal activity against Glomerella lagenarium (Colletotrichum lagenarium) liquid culture / cucumber / preventative (anthracnose); type: cell-based; details: Colletotrichum orbiculare; 20 ppm in the applied formulation; liquid culture (PDB), growth inhibition measured photometrically after 3 to 4 days; compared to untreated control; read-out: disease control
Procedure, shortened: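 Percent activity against the untreated check was derived from photometric growth measurements made 2 to 7 days after conidia in potato dextrose broth were combined with compound at 20 ppm. Cultures were kept dark at 24 °C and 96% humidity.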

Phakopsora Pachyrhizi = experiment: Fungicidal activity against Phakopsora pachyrhizi / soybean / leaf disc preventative (Asian soybean rust); type: in vivo; details: foliar, 200 ppm in the applied formulation, soybean leaf disks, compared to untreated control leaf disks, read-out: disease control
Procedure, shortened: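 Scored 12 to 14 days post-application as percent control relative to untreated check discs, rust spores were sprayed under the disc one day after compound treatment. Incubation: 20°C, 75% rh, first 24–36 h in darkness, then 12 h daily light; discs kept on water agar.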

[3] = tested on: Puccinia recondita f. Sp. Tritici; experiment: Fungicidal activity against Puccinia recondita f. sp. tritici / wheat / leaf disc preventative (brown rust); type: in vivo; details: foliar, 200 ppm in the applied formulation, wheat leaf segments, preventative, compared to untreated control leaf disks, read-out: disease control
Procedure, shortened: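 Percent disease control relative to untreated check segments is scored once disease develops, 7 to 9 days after application. Wheat cv. Kanzler segments receive compound spray (200 ppm in formulation) one day before spore inoculation, then sit at 19° C. and 75% rh under 12 h light/12 h dark.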

CCC(=O)N(CC)Cc1ccc(-c2noc(C(F)(F)F)n2)cc1 [Compound 1.497, N-ethyl-N-[[4-[5-(trifluoromethyl)-1,2,4-oxadiazol-3-yl]phenyl]methyl]-propanamide]
≥ 80%: pest or weed control at 200 ppm [1] | inhibition of growth at 20 ppm [2] | pest or weed control at 200 ppm (Phakopsora Pachyrhizi) | pest or weed control at 200 ppm [3]

CCN(Cc1ccc(-c2noc(C(F)(F)F)n2)cc1)C(=O)CCCOC [Compound 1.507, N-ethyl-4-methoxy-N-[[4-[5-(trifluoromethyl)-1,2,4-oxadiazol-3-yl]phenyl]methyl]-butanamide]
≥ 80%: pest or weed control at 200 ppm [1] | inhibition of growth at 20 ppm [2] | pest or weed control at 200 ppm (Phakopsora Pachyrhizi) | pest or weed control at 200 ppm [3]

CCC(=O)N(CCO)Cc1ccc(-c2noc(C(F)(F)F)n2)cc1 [Compound 1.591, N-(2-hydroxyethyl)-N-[[4-[5-(trifiuoromethyl)-1,2,4-oxadiazol-3-yl]phenyl]methyl]-propanamide]
≥ 80%: pest or weed control at 200 ppm [1] | inhibition of growth at 20 ppm [2] | pest or weed control at 200 ppm (Phakopsora Pachyrhizi) | pest or weed control at 200 ppm [3]

CON(Cc1ccc(-c2noc(C(F)(F)F)n2)cc1)C(=O)CCCCC(F)(F)F [Compound 1.53, 6,6,6-trifluoro-N-methoxy-N-[[4-[5-(trifluoromethyl)-1,2,4-oxadiazol-3-yl]phenyl]methyl]-hexanamide]
≥ 80%: pest or weed control at 200 ppm [1] | inhibition of growth at 20 ppm [2] | pest or weed control at 200 ppm (Phakopsora Pachyrhizi) | pest or weed control at 200 ppm [3]

COCCC(=O)N(CCOC)Cc1ccc(-c2noc(C(F)(F)F)n2)cc1 [Compound 1.335, 3-methoxy-N-(2-methoxyethyl)-N-[[4-[5-(trifluoromethyl)-1,2,4-oxadiazol-3-yl]phenyl]methyl]-propanamide]
≥ 80%: pest or weed control at 200 ppm [1] | inhibition of growth at 20 ppm [2] | pest or weed control at 200 ppm (Phakopsora Pachyrhizi) | pest or weed control at 200 ppm [3]

CCC(C)N(Cc1ccc(-c2noc(C(F)(F)F)n2)cc1)C(=O)COC(C)=O (stereo not shown) [Compound 1.392, [2-oxo-2-[sec-butyl-[[4-[5-(trifluoromethyl)-1,2,4-oxadiazol-3-yl]phenyl]methyl]-amino]ethyl] acetate]
≥ 80%: pest or weed control at 200 ppm [1] | inhibition of growth at 20 ppm [2] | pest or weed control at 200 ppm (Phakopsora Pachyrhizi) | pest or weed control at 200 ppm [3]

CCC(C)C(=O)N(CC)Cc1ccc(-c2noc(C(F)(F)F)n2)cc1 (stereo not shown) [Compound 1.506, N-ethyl-2-methyl-N-[[4-[5-(trifluoromethyl)-1,2,4-oxadiazol-3-yl]phenyl]methyl]-butanamide]
≥ 80%: pest or weed control at 200 ppm [1] | inhibition of growth at 20 ppm [2] | pest or weed control at 200 ppm (Phakopsora Pachyrhizi) | pest or weed control at 200 ppm [3]

CCCN(Cc1ccc(-c2noc(C(F)(F)F)n2)cc1)C(=O)CC [Compound 1.573, N-propyl-N-[[4-[5-(trifluoromethyl)-1,2,4-oxadiazol-3-yl]phenyl]methyl]-propanamide]
≥ 80%: pest or weed control at 200 ppm [1] | inhibition of growth at 20 ppm [2] | pest or weed control at 200 ppm (Phakopsora Pachyrhizi) | pest or weed control at 200 ppm [3]

CCN(Cc1ccc(-c2noc(C(F)(F)F)n2)cc1)C(=O)C1CC1 [Compound 1.514, N-ethyl-N-[[4-[5-(trifluoromethyl)-1,2,4-oxadiazol-3-yl]phenyl]methyl]-cyclopropane-carboxamide]
≥ 80%: pest or weed control at 200 ppm [1] | inhibition of growth at 20 ppm [2] | pest or weed control at 200 ppm (Phakopsora Pachyrhizi) | pest or weed control at 200 ppm [3]

COCCCC(=O)N(O)Cc1ccc(-c2noc(C(F)(F)F)n2)cc1 [Compound 1.769, N-hydroxy-4-methoxy-N-[[4-[5-(trifluoromethyl)-1,2,4-oxadiazol-3-yl]phenyl]methyl]-butanamide]
≥ 80%: pest or weed control at 200 ppm [1] | inhibition of growth at 20 ppm [2] | pest or weed control at 200 ppm (Phakopsora Pachyrhizi) | pest or weed control at 200 ppm [3]

CCON(Cc1ccc(-c2noc(C(F)(F)F)n2)cc1)C(=O)C1(C)COC1 [Compound 1.623, N-ethoxy-3-methyl-N-[[4-[5-(trifluoromethyl)-1,2,4-oxadiazol-3-yl]phenyl]methyl]-oxetane-3-carboxamide]
≥ 80%: pest or weed control at 200 ppm [1] | inhibition of growth at 20 ppm [2] | pest or weed control at 200 ppm (Phakopsora Pachyrhizi) | pest or weed control at 200 ppm [3]

CC(C)CC(=O)N(Cc1ccc(-c2noc(C(F)(F)F)n2)cc1)C1CC1 [Compound 1.109, N-cyclopropyl-3-methyl-N-[[4-[5-(trifluoromethyl)-1,2,4-oxadiazol-3-yl]phenyl]methyl]-butanamide]
≥ 80%: pest or weed control at 200 ppm [1] | inhibition of growth at 20 ppm [2] | pest or weed control at 200 ppm (Phakopsora Pachyrhizi) | pest or weed control at 200 ppm [3]

COC(=O)ON(Cc1ccc(-c2noc(C(F)(F)F)n2)cc1)C(=O)OC [Compound 2.25, [methoxycarbonyl-[[4-[5-(trifluoromethyl)-1,2,4-oxadiazol-3-yl]phenyl]methyl]-amino]methyl carbonate]
≥ 80%: pest or weed control at 200 ppm [1] | inhibition of growth at 20 ppm [2] | pest or weed control at 200 ppm (Phakopsora Pachyrhizi) | pest or weed control at 200 ppm [3]

C#CCN(Cc1ccc(-c2noc(C(F)(F)F)n2)cc1)C(=O)CCCOC [Compound 1.196, 4-methoxy-N-prop-2-ynyl-N-[[4-[5-(trifluoromethyl)-1,2,4-oxadiazol-3-yl]phenyl]methyl]-butanamide]
≥ 80%: pest or weed control at 200 ppm [1] | inhibition of growth at 20 ppm [2] | pest or weed control at 200 ppm (Phakopsora Pachyrhizi) | pest or weed control at 200 ppm [3]

CON(Cc1ccc(-c2noc(C(F)(F)F)n2)cc1)C(=O)NCC(C)C [Compound 3.13, 3-isobutyl-1-methoxy-1-[[4-[5-(trifluoromethyl)-1,2,4-oxadiazol-3-yl]phenyl]methyl]urea]
≥ 80%: pest or weed control at 200 ppm [1] | inhibition of growth at 20 ppm [2] | pest or weed control at 200 ppm (Phakopsora Pachyrhizi) | pest or weed control at 200 ppm [3]

CC1CC1C(=O)N(Cc1ccc(-c2noc(C(F)(F)F)n2)cc1)C1CC1 (stereo not shown) [Compound 1.115, N-cyclopropyl-2-methyl-N-[[4-[5-(trifluoromethyl)-1,2,4-oxadiazol-3-yl]phenyl]methyl]-cyclopropane-carboxamide]
≥ 80%: pest or weed control at 200 ppm [1] | inhibition of growth at 20 ppm [2] | pest or weed control at 200 ppm (Phakopsora Pachyrhizi) | pest or weed control at 200 ppm [3]

CC(C)N(Cc1ccc(-c2noc(C(F)(F)F)n2)cc1)C(=O)C1CCOC1 (stereo not shown) [Compound 1.673, N-isopropyl-N-[[4-[5-(trifluoromethyl)-1,2,4-oxadiazol-3-yl]phenyl]methyl]-tetrahydrofuran-3-carboxamide]
≥ 80%: pest or weed control at 200 ppm [1] | inhibition of growth at 20 ppm [2] | pest or weed control at 200 ppm (Phakopsora Pachyrhizi) | pest or weed control at 200 ppm [3]

CCON(Cc1ccc(-c2noc(C(F)(F)F)n2)cc1)C(=O)CCOC [Compound 1.618, N-ethoxy-3-methoxy-N-[[4-[5-(trifluoromethyl)-1,2,4-oxadiazol-3-yl]phenyl]methyl]-propanamide]
≥ 80%: pest or weed control at 200 ppm [1] | inhibition of growth at 20 ppm [2] | pest or weed control at 200 ppm (Phakopsora Pachyrhizi) | pest or weed control at 200 ppm [3]

O=C(C1CCOC1)N(Cc1ccc(-c2noc(C(F)(F)F)n2)cc1)CC(F)(F)F (stereo not shown) [Compound 1.692, N-(2.2.2-trifluoroethyl)-N-[[4-[5-(trifluoromethyl)-1,2,4-oxadiazol-3-yl]phenyl]methyl]-tetrahydrofuran-3-carboxamide]
≥ 80%: pest or weed control at 200 ppm [1] | inhibition of growth at 20 ppm [2] | pest or weed control at 200 ppm (Phakopsora Pachyrhizi) | pest or weed control at 200 ppm [3]

Source: patent US11180462B2, “Microbiocidal oxadiazole derivatives” (SYNGENTA PARTICIPATIONS AG, priority 2015, dated 2021)
